Measurements as given in PubChem BioAssay AID687022 (Broad Institute, 2013).
The source made the active and inactive calls.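 Rule for the calls: active = Fitted curve of melting temperature shift crosses the 1.0 threshold at or below the sample's highest valid tested concentration; inconclusive = Flat fit with activity 30 to 70, or invalid fit; inactive = Opposite direction, flat within 30, or no crossing.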

Molecular target: Fibroblast growth factor 22 (Homo sapiens) (UniProt Q9HCT0)
Assay: FGF22 ligand-induced thermal stabilization – biophysical, thermal shift, cherry-pick, FGF22 synaptogenesis inhibitor project, dose response (AID 687022)
Settings: recombinant FGF22 thermal shift, SYPRO orange melting

Sequence of Fibroblast growth factor 22 (Homo sapiens) (Q9HCT0 whole entry, looked up): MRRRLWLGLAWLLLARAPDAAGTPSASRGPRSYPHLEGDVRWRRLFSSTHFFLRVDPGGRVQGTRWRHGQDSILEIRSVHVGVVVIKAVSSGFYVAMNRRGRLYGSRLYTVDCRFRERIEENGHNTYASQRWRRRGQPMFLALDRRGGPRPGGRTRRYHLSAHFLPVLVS

Compound | AbsAC1 (concentration giving Tm-shift threshold 1.0)
CS(=O)(=O)c1ccc2nc(NC(=O)c3ccc(Cl)nc3)sc2c1 | 22.9 µM
Cc1ccc(NC(=O)c2sc3ncn(CC(=O)N4CCN(c5ccccn5)CC4)c(=O)c3c2C)cc1F | 10.6 µM
Cc1ccc2nc(-c3ccc(NC(=O)COCC(=O)O)cc3)sc2c1 | 3.64 µM
O=C(N/N=C/c1c[nH]c2ccccc12)c1cccc(O)c1 | 2.9 µM
CO[C@@H](CN(C)S(=O)(=O)c1cccc(Cl)c1)[C@@H](C)CN([C@@H](C)CO)S(=O)(=O)c1cccc(Cl)c1 | 5.29 µM
C[C@@H]1CN([C@H](C)CO)S(=O)(=O)c2ccc(-c3ccncc3)cc2O[C@@H]1CN(C)C(=O)Nc1ccc(C(F)(F)F)cc1 | 15.3 µM
CCCOC(=O)c1ccc(Oc2cn[nH]c2-c2ccc(O)cc2O)cc1 | 18.6 µM
O=C(N/N=C\c1c[nH]c2ccccc12)c1ccc(O)cc1 | 1.85 µM
Cc1ccc(-c2n[nH]c(=S)n2/N=C/c2c(C)[nH]n(-c3ccccc3)c2=O)cc1 | 4.65 µM
COc1ccc2o/c(=N\O)c(C(=O)Nc3ccc(C)cc3)cc2c1 | 28 µM
O=[N+]([O-])c1cc(CS(=O)(=O)Oc2ccc(Cl)cc2)c(O)c([N+](=O)[O-])c1 | > 5 µM (inactive)
O=C(CNC(=O)c1ccc(S(=O)(=O)N2CCCC2)cc1)N/N=C/c1ccc(F)cc1 | 16.5 µM
Cc1ccc(NC(=O)c2ccc(OCc3c(C)noc3C)cc2)c(C)c1 | 2.58 µM
O=C(Cc1c[nH]c2ccccc12)N1CCN(S(=O)(=O)c2cccc(Cl)c2Cl)CC1 | 13.4 µM
COc1cc(NC(=O)c2ccc3c(c2)OCCO3)ccc1NC(=O)c1cccs1 | 3.85 µM
O=[N+]([O-])c1cccc(S(=O)(=O)Nc2ccc(-c3ccc(N4CCOCC4)nn3)cc2)c1 | 7.01 µM
COc1ccc(NC(=O)N[C@H]2CC[C@@H](CCn3cc(-c4ccc(OC)cc4)nn3)O[C@@H]2CO)cc1 | > 42 µM (inactive)
COc1ccc(Nc2nc3ccc(OC)cc3s2)cc1 | 2.95 µM
COc1cccc(NC(=O)N(C)C[C@@H]2Oc3cc(-c4ccccc4F)ccc3S(=O)(=O)N([C@H](C)CO)C[C@@H]2C)c1 | 2.04 µM
CC(C)(C)c1ccc(C2CC2C(=O)N/N=C\c2ccc[nH]2)cc1 (stereo not drawn) | 14.3 µM
CCOc1cccc(C(=O)Nc2ccc3[nH]ncc3c2)c1 | 3.89 µM

Compound | AbsAC1 (concentration giving Tm-shift threshold 1.0)
COc1nsnc1NS(=O)(=O)c1ccc(NC(=S)NC(=O)c2cccnc2)cc1 | 8.95 µM
O=C(N/N=C/c1c[nH]c2ccccc12)c1cc2ccccc2o1 | 2.71 µM
CC(=O)c1ccc(NC(=O)Nc2cccnc2)cc1 | 7.05 µM
CC(C)Oc1ccc(F)cc1-c1cc(C(=O)NCc2cccs2)[nH]n1 | 8.55 µM
CNC(=S)N(Cc1ccc(OC)cc1)C1CC(=O)N(c2ccc(C(=O)OC)cc2)C1=O (stereo not drawn) | 3.43 µM
O=S(=O)(ON(c1ccccc1)S(=O)(=O)c1ccccc1)c1ccccc1 | 14 µM
COc1ccc(C)cc1NS(=O)(=O)c1ccc(NS(=O)(=O)c2ccc(NC(C)=O)cc2)cc1 | 3.7 µM
CC(C)c1ccc(-n2c(O)c(/C=N/NC(=O)c3ccccc3O)c(=O)[nH]c2=S)cc1 | 3.91 µM
C[C@@H]1CN([C@H](C)CO)C(=O)c2cc(NC(=O)Nc3ccc(C(F)(F)F)cc3)ccc2O[C@@H]1CN(C)Cc1ccc(C(=O)O)cc1 | 11.5 µM
CCOc1ccc(NC(=O)CC2C(=O)N(c3ccc(OC)cc3)C(=S)N2Cc2ccccn2)cc1 (stereo not drawn) | 3.11 µM
O=C(Nc1ccc(F)cc1)N[C@H]1CC[C@@H](CCn2cc(-c3ccccc3F)nn2)O[C@@H]1CO | 7.38 µM
COc1ccccc1CNC(=O)C[C@H]1CC[C@@H]2[C@H](COC[C@H](O)CN2C(=O)Nc2ccc(Cl)cc2)O1 | 30.5 µM
C[C@@H]1CN([C@@H](C)CO)S(=O)(=O)c2ccc(C3=CCCC3)cc2O[C@@H]1CN(C)C(=O)Nc1ccc2c(c1)OCO2 | 20.2 µM
C[C@@H]1CN([C@@H](C)CO)C(=O)Cc2cc(NC(=O)C3CC3)ccc2O[C@H]1CN(C)Cc1ccc(Cl)c(Cl)c1 | 16.7 µM
O=Cc1cc(OCc2ccccc2)ccc1[B-](F)(F)F | 4.64 µM
COc1cccc(NC(=O)N(C)C[C@@H]2Oc3cc(-c4ccccc4F)ccc3S(=O)(=O)N([C@@H](C)CO)C[C@@H]2C)c1 | 2.97 µM
O=C(Cc1n[nH]c(=O)[nH]c1=O)N/N=C/c1c(O)ccc2ccccc12 | 9.89 µM
CCOC(=O)c1sc(NC(=O)Nc2ccccc2)cc1C | 10.2 µM
C[C@@H]1CN([C@@H](C)CO)C(=O)c2cc(NC(=O)Nc3ccc(C(F)(F)F)cc3)ccc2O[C@@H]1CN(C)Cc1ccc(C(=O)O)cc1 | 18.1 µM
O=S(=O)(Nc1cc(Cl)ccc1-n1cncn1)c1ccc(F)cc1 | 15.2 µM
CSc1ccc(/C=N/NC(=O)c2ccc3nc[nH]c3c2)cc1 | 1.58 µM

Compound | AbsAC1 (concentration giving Tm-shift threshold 1.0)
Oc1cc(O)cc(C=Cc2ccc(O)c(O)c2)c1 | 11.9 µM
O=C(Nc1ccc(Cl)cc1)N[C@H]1CC[C@H](CCNC(=O)c2cc(Cl)cc(Cl)c2)O[C@@H]1CO | 34.9 µM
C[C@H](CO)N1C[C@H](C)[C@@H](CN(C)Cc2ccc(C(=O)O)cc2)Oc2cc(/C=C/c3ccccc3)ccc2S1(=O)=O | > 42 µM (inactive)
Cc1cc(C(=O)N/N=C/c2c[nH]c3ccccc23)cs1 | 2.23 µM
O=C(NN1C(=O)CSC1=S)C(=O)NN1C(=O)CSC1=S | 5.24 µM
O=C(Nc1nccs1)c1ccc(S(=O)(=O)NCc2cccs2)cc1 | 11.1 µM
COc1cc(/C=N/NC(=O)c2[nH]nc3c2CCc2ccccc2-3)ccc1O | 6.1 µM
O=C(Nc1ccc(S(=O)(=O)NCc2ccccc2)cc1)c1ccccc1[N+](=O)[O-] | 12 µM
O=S(=O)(Nc1cccc(-n2cnnn2)c1)c1ccc(Cl)cc1 | 27.6 µM
COc1ccc(CN2C(=O)N(c3ccc(OC)cc3)C(=O)C2CC(=O)Nc2ccccc2)cc1 (stereo not drawn) | 6.06 µM
CC(C)CCNC(=O)c1onc(CSc2ccncc2)c1C(=O)NCCC(C)C | 3.89 µM
Cc1ccc(NC(=O)Nc2cccnc2)cc1 | 27.1 µM
O=C(O)c1cccc(NS(=O)(=O)c2ccc(Cl)c(C(=O)Nc3cccc([N+](=O)[O-])c3)c2)c1 | 11.9 µM
Cn1ncc2c(Nc3ccc(Cl)c(Cl)c3)ncnc21 | 24.9 µM
Cc1ccn(-c2ccc(NC(=O)c3cccs3)cc2)n1 | 3.72 µM
Cc1ccc(OCCCC(=O)Nc2ccc(S(=O)(=O)N3CCOCC3)cc2)cc1 | 2.45 µM
Cc1nn(-c2ccccc2)c(C)c1/C=N/NC(=O)c1cc(-c2cccs2)[nH]n1 | 8.19 µM
COc1ccccc1NC(=O)c1ccc(NC(=O)c2ccc(=O)[nH]c2)cc1 | 4.02 µM
CCn1ccnc1CN(C)C(=O)c1ccc2nc(Cc3ccc(OC)cc3)oc2c1 | 11.9 µM
S=C(Nc1ccc(Cl)cc1)Nc1ccc2cn[nH]c2c1 | 3.25 µM
O=C(Nc1ccccc1)N1C[C@H]2[C@@H](c3ccccc31)[C@@H](CO)N2C(=O)c1ccncc1 | 41.2 µM

Compound | AbsAC1 (concentration giving Tm-shift threshold 1.0)
COc1ccc2nc(NC(=O)CCc3cc(OC)c(OC)c(OC)c3)sc2c1 | 19.3 µM
O=C(NNC(=O)c1ccccc1F)c1ccc(NS(=O)(=O)c2ccc(F)cc2)cc1 | 18.2 µM
Cc1[nH]c2ccc(C(=O)OCC(=O)Nc3cccc(S(N)(=O)=O)c3)cc2c1C | 2.86 µM
COc1ccc(/C(O)=C/C(=O)C(=O)NNC(=O)c2ccccc2)cc1 | 31.6 µM
O=C(Nc1ccc(S(=O)(=O)N2CCOCC2)cc1)c1ccc(F)cc1 | 12.7 µM
O=C(C[C@@H]1CC[C@@H]2[C@H](COC[C@@H](O)CN2S(=O)(=O)c2cccc(F)c2)O1)Nc1ccc(-c2ccccc2)cc1 | 22.3 µM
CCC(=O)Nc1nc(C)c(-c2csc(Nc3ccccn3)n2)s1 | 4.91 µM
Cc1ccc(CCNc2ncnc(Cl)c2N)cc1 | 6.55 µM
Cc1nc2ccccc2c2oc(C(=O)NCc3ccc4c(c3)OCO4)cc12 | 2.57 µM
O=C(CN1C(=O)NC2(CCOc3ccccc32)C1=O)Nc1ccc(Br)cc1F (stereo not drawn) | 16.6 µM
COC(=O)C[C@H]1CC[C@@H]2[C@@H](COc3ccc(NC(=O)Nc4ccc(C#N)cc4)cc3C(=O)N2C)O1 | 5.43 µM
CO[C@H](CN(C)S(=O)(=O)c1cccc(Cl)c1)[C@H](C)CN([C@H](C)CO)S(=O)(=O)c1cccc(Cl)c1 | 14.1 µM
CCOc1ccc(-c2cc(C(=O)N/N=C/c3cccnc3)c3ccccc3n2)cc1 | 13 µM
CC(C)(C)[S@@](=O)N1Cc2cc(C(=O)NCc3ccccc3F)nc(-c3cccc(-c4ccncc4)c3)c2[C@H]1CCO | > 38 µM (inactive)
O=[N+]([O-])c1ccc2nc(-c3ccccc3)[nH]c2c1 | 3.88 µM
CC(=O)Nc1ccc(NC(=O)Nc2ccccc2)cc1 | 2.14 µM
O=S1(=O)N=C(N(Cc2cccs2)c2ccc(O)cc2)c2ccccc21 | 1.47 µM
O=C(Nc1cc(Cl)cc(Cl)c1)N[C@H]1CC[C@H](CCNS(=O)(=O)c2cccc(F)c2)O[C@@H]1CO | 11 µM
CCOC(=O)c1c(N)sc(C(=O)Nc2ccccc2)c1C | 3.02 µM
CCOc1ccc(N2C(=O)C(CC(=O)Nc3ccccc3)N(Cc3ccccn3)C2=S)cc1 (stereo not drawn) | 4.24 µM
